In US20110189306A1, “COMPOUNDS, COMPOSITIONS AND TREATMENTS FOR V-ATPase RELATED DISEASES” (priority 2010, published 2011):
“Also recorded” adds a separate entry of the source.

Experiments:
[1] = test system: undifferentiated RAW 264.7 cells; test: MTT assay to determine cytotoxicity; type: cell-based, mouse
Experimental: The concentration range of compound tested was from 0.3 to 40 μM, as indicated (n=3). Yellow MTT is converted to purple formazan by mitochondrial reductases. Formazan is measured spectrophotometrically to deduce metabolic activity of test cells. Reduced metabolic activity indicates metabolic dysfunction due to cytotoxicity. In this case, significant cytotoxicity is not seen up to 2.5 μM KM91104 concentration. C indicates control, vehicle only added. The test cell line was undifferentiated RAW 264.7 cells.

RAW 264.7 cells [2] = test: Total solubilized TRAP assay of RANKL-mediated differentiation; type: cell-based, mouse; conditions: 3 days of growth with RANKL, 0.3 to 40 μM tested
Experimental: The concentration range of compound tested was from 0.3 to 40 μM, as indicated (see Materials and Methods). C indicates control, vehicle only added. TRAP is a marker for osteoclast differentiation and will convert colorless p-nitrophenylphosphate to yellow nitrophenol under acidic conditions. The yellow color is quantified spectrophotometrically and indicates degree of differentiation after 3 days of growth with RANKL.

[3] = test system: mouse bone marrow-derived macrophages (BMM); test: TRAP staining of osteoclasts RANKL-differentiated from bone marrow-derived macrophages; type: cell-based; conditions: 1.25 μM
Experimental: Panels show: a, control, vehicle only; b and c are duplicates with 1.25 μM KM91104.

[4] = test system: undifferentiated RAW 264.7 cells; test: Protein assay on cell cultures (effect on cellular growth); type: cell-based, mouse; conditions: for effect on cell growth, metabolic activity, cytotoxicity (in words): at 1.25 μM / at a concentration efficacious in inhibiting acid secretion; for concentration that did not significantly affect cell growth / total protein: undifferentiated RAW 264.7 cells, 0.3 to 40 μM tested, n=3
Experimental: Concentration range of compound tested was from 0.3 to 40 μM, as indicated (n=3, error bars are +/−SD). […] C indicates control, vehicle only added. The test cell line was undifferentiated RAW 264.7 cells.

RAW 264.7 cells [5] = test: TRAP staining analysis (qualitative and cell counts) of RANKL-mediated differentiation and fusion; type: cell-based, mouse; conditions: for effect on osteoclast formation, differentiation and fusion (in words): at 1.25 μM / at a concentration efficacious in inhibiting acid secretion, where stated
Experimental: The concentration range of compound tested was from 0.6 to 40 μM, as follows (in μM): a, control, vehicle only; b, 0.63; c, 1.25; d, 2.5; e, 5.0; f, 10; g, 20; h, 40. […] The latter observation is consistent with the conclusion of the protein assay of FIG. 7.
Plotted are cell counts for multinucleated cells with greater than 3 nuclei after treatment with compound KM91104. This figure confirms the qualitative conclusion of FIG. 10 that there is a drop off in the number of larger osteoclasts above 1.25 μM concentration.

[6] = test system: RANKL-differentiated RAW 264.7 cells; test: Hydroxyapatite resorption on Corning Osteo-Assay Surface plates; type: cell-based, mouse; conditions: for acid secretion of osteoclasts (in words): murine osteoclasts
Experimental: RAW 264.7 cells (American Type Culture Collection (ATCC), cat. no. TIB-71) were differentiated in the presence of 100 ng/ml RANKL on synthetic mineralized surfaces of Corning Osteo-Assay Surface 96-well plates (Corning Inc. Life Sciences, Lowell, Mass.; cat. no. 3988XX1). Cells were cultured for 5 days in 200 μl α-MEM (Grand Island Biological Co. (GIBCO)/Invitrogen Corp. cat. no. 12571-063) with 10% fetal bovine serum (FBS; (GIBCO/Invitrogen) cat. no. 10437-028, Lot 1233072). Exposure of cells to RANKL and KM91104 was continuous throughout the experiment. The complete medium was changed on the third day. On day 5, cells were removed using 3% sodium hypochlorite solution. Plates were air dried and then imaged using digital brightfield photomicrography (Leica DM IRE2 with OpenLab software, Leica Microsystems, Richmond Hill, Canada). Image analysis was carried out with NIH ImageJ software (National Institutes of Health, Bethesda, Md.). Concentrations of KM91104 (μM) in medium were as follows: a, control, vehicle only; b, 0.63; c, 1.25; d, 2.5; e, 5.0; f, 10; g, 20; h, 40.
The concentration range of KM91104 tested was from 0.3 to 40 μM, as indicated (see Materials and Methods). C indicates control, vehicle only added. […] Error bars indicate +/−SD (n=3).
Bone resorption (FIGS. 13 and 14) was assayed using the following method. RAW 264.7 cells were differentiated on synthetic mineralized surfaces in 96 well Corning Osteo Assay Surface plates with 100 ng/ml RANK ligand. Wells were simultaneously treated with the lead compound. Cells were cultured for 5 days in […] of α-MEM. The complete medium was changed on the third day. On day 5, cells were removed using 50% bleach solution. Plates were dried and imaged using digital brightfield photomicrograpy. Image analysis was carried out using ImageJ.

[7] = target: TRX-NTa3 fusion protein (TRX-G2-NTa3(1-393)), N-terminal domain of mouse V-ATPase subunit a3 fused to thioredoxin (mouse); test: ELISA saturation curve, plate coated with TRX-NTa3, GST-B2 as analyte; apparent Kd from half-maximal binding
[8] = target: TRX-NTa3 fusion protein (TRX-G2-NTa3(1-393)), N-terminal domain of mouse V-ATPase subunit a3 fused to thioredoxin (mouse); test: ELISA, plate coated with TRX-NTa3, GST-CTB2 as analyte; apparent Kd
[9] = target: TRX-NTa3 fusion protein (TRX-G2-NTa3(1-393)), N-terminal domain of mouse V-ATPase subunit a3 fused to thioredoxin (mouse); test: ELISA saturation curve, plate coated with TRX-NTa3, GST-B1 as analyte; apparent Kd from half-maximal binding
[10] = target: TRX-NTa3 fusion protein (TRX-G2-NTa3(1-393)), N-terminal domain of mouse V-ATPase subunit a3 fused to thioredoxin (mouse); test: ELISA, plate coated with TRX-NTa3, GST-NTB2 as analyte; apparent Kd
[11] = target: TRX-NTa3 fusion protein (TRX-G2-NTa3(1-393)), N-terminal domain of mouse V-ATPase subunit a3 fused to thioredoxin (mouse); test: ELISA, plate coated with TRX-NTa3, GST-NTB2 against GST-B2(GH)

Molecule: O=C(N/N=C/c1ccccc1O)c1ccc(O)c(O)c1 [KM91104, 3,4-dihydroxy-N′-(2-hydroxybenzylidene)benzohydrazide]
- toxicity (in words) ([1]; murine RAW264.7 cells): low toxicity
- concentration up to which significant cytotoxicity is not seen (MTT) ([1]; undifferentiated RAW 264.7 cells, 0.3 to 40 μM tested, n=3): up to 2.5 μM
- concentration up to which differentiation / mature osteoclast formation is not appreciably affected (TRAP) (RAW 264.7 cells [2]): up to 20 μM
- concentration up to which differentiation / mature osteoclast formation is not appreciably affected (TRAP) (RAW 264.7 cells [2]; listed as lead compound): < 20 µM
- formation / maturation of large BMM-derived osteoclasts [3]: does not significantly affect the formation of large osteoclasts
- formation / maturation of large BMM-derived osteoclasts ([3]; listed as lead compound): does not affect BMM derived osteoclast maturation
- effect on cell growth, metabolic activity, cytotoxicity (in words) [4]: does not affect cell growth or cause cytotoxicity
- effect on cell growth, metabolic activity, cytotoxicity (in words) ([4]; listed as lead compound): no discernable effect on growth or metabolic activity
- concentration that did not significantly affect cell growth / total protein [4]: up to 20 μM
- concentration that did not significantly affect cell growth / total protein ([4]; listed as lead compound): < 20 µM
- concentration above which osteoclast size / number of larger osteoclasts (>3 nuclei) is reduced (fusion impaired) (RAW 264.7 cells [5]; RANKL-differentiated RAW 264.7, 0.6 to 40 μM tested): above 1.25 μM
- TRAP staining of cells (RAW 264.7 cells [5]; all concentrations, 0.63 to 40 μM): essentially all cells stain for TRAP
- effect on osteoclast formation, differentiation and fusion (in words) (RAW 264.7 cells [5]): does not affect osteoclast differentiation or fusion to form large osteoclasts
- effect on osteoclast formation, differentiation and fusion (in words) (RAW 264.7 cells [5]; listed as lead compound): limited effect on their ability to differentiate or undergo fusion
- effect on osteoclast formation, differentiation and fusion (in words) (RAW 264.7 cells [5]; listed as the compound): little effect on osteoclast formation and differentiation
- cell density (RAW 264.7 cells [5]; highest concentration (40 μM)): reduction of cell density
- concentration that does not affect osteoclast fusion (RAW 264.7 cells [5]; summary of FIGS. 10 and 11): < 5 µM
- IC50 ([6]; Mus musculus, RAW264.7, 120 h, 5 days, continuous exposure to RANKL and compound, image analysis of resorption areas, n=3, read-out: concentration for approximately half-maximal inhibition of resorption): ~1250 nM
- effect on resorption (in words) ([6]; in vitro, synthetic mineralized surface, listed as lead compound): inhibited resorption without affecting osteoclast formation; also recorded: prevents bone resorption in vitro
- reduction in resorption ([6]; lowest concentration tested (range 0.3 to 40 μM)): Highly significant reduction in resorption
- acid secretion of osteoclasts (in words) ([6]; listed as lead compound): inhibits acid secretion
- acid secretion of osteoclasts (in words) ([6]; listed as the compound): significantly reduced acid secretion

Molecule: GST-B2(GH) fusion protein (GST-G2-B2(1-511)-G2H6G2), full length mouse V-ATPase subunit B2 fused to glutathione-S-transferase
- Kd [7]: 2.4 nM

Molecule: GST-CTB2 fusion protein (GST-G2-B2(148-511)), C-terminal domain of mouse V-ATPase subunit B2 fused to glutathione-S-transferase
- Kd [8]: 4.1 nM

Molecule: GST-B1(GH) fusion protein (GST-G2-B1(1-513)-G2H6G2), full length mouse V-ATPase subunit B1 fused to glutathione-S-transferase (from UniProt Q91YH6)
- Kd [9]: 2.3 nM

Molecule: GST-NTB2 fusion protein (GST-G2-B2(1-112)), N-terminal domain of mouse V-ATPase subunit B2 fused to glutathione-S-transferase
- Kd [10]: 230 nM
- fold reduction of binding against the full-length B2 subunit [11]: 60 fold
